Assay results: patent publication US20070049564A1 (Wyeth, priority 2005, published 2007)
In brackets after ≈: the same amount, converted by molar mass. Where two headings read alike, the source gives them in different places.

Experiments:
E. coli #311 = assay: In vivo activity (oral, iv; ED50) against E. coli in mice; settings: Escherichia coli
Excerpt: . […] Smith and E. Coli #311 in mammals.
Results of the tests (MIC, oral and IV) are list in Table 7.

E. coli = assay: Range of MIC for E. coli strains; settings: Escherichia coli
Staph. = assay: Range of MIC for Staph. strains, including MRSA; settings: Staphylococcus aureus
Staph. aureus Smith = assay: In vivo activity (oral, iv; ED50) against Staph. aureus Smith in mice
[1] = single intravenous dose (SIV), read-out: ED50 E. coli #311 SIV
[2] = single oral dose (SOD), read-out: ED50 E. coli #311 SOD
[3] = 20 h, read-out: Range of MIC, E. coli (Mouse Serum)
[4] = read-out: Range of MIC, E. coli (Water)
[5] = MRSA, read-out: Range of MIC, Staph (Mouse Serum)
[6] = Staphylococcus aureus, in Mus musculus, po, read-out: ED50 Staph Smith SOD
[7] = iv, read-out: ED50 Staph Smith SIV

Row | MIC (E. coli; [3]) [µg/mL] | MIC (E. coli; [4]) [µg/mL] | MIC (Staph.; [5]) [µg/mL] | MIC (Staph.; MRSA, read-out: Range of MIC, Staph (Water)) [µg/mL] | MIC (Staph.; read-out: Minimum inhibitory concentration (MIC), Staph (Human Serum)) [µg/mL] | Compound | ED50 (E. coli #311; [1]) [mg/kg] | ED50 (E. coli #311; [2]) [mg/kg] | ED50 (Staph. aureus Smith; [6]) [mg/kg] | ED50 (Staph. aureus Smith; [7]) [mg/kg]
1 | 0.25 to 1 (≈ 0.293 to 1.17 µM) | > 64 | 0.5 to 4 (≈ 0.586 to 4.68 µM) | – | – | CN(C)c1cc(NC(=O)CN(C(=O)OCOC(=O)C(c2ccccc2)c2ccccc2)C(C)(C)C)c(O)c2c1C[C@H]1C[C@H]3[C@H](N(C)C)C(O)=C(C(N)=O)C(=O)[C@@]3(O)C(O)=C1C2=O [Example 74, ({[(2-{[(5aR,6aS,7S,10aS)-9-(aminocarbonyl)-4,7-bis(dimethylamino)-1,8,10a,11-tetrahydroxy-10,12-dioxo-5,5a,6,6a,7,10,10a,12-octahydrotetracen-2-yl]amino}-2-oxoethyl)(tert-butyl)amino]carbonyl}oxy)methyl diphenylacetate] | > 4 | > 32 | > 32 | 1.08
2 | 0.25 to 1 (≈ 0.304 to 1.22 µM) | – | 0.25 to 1 (≈ 0.304 to 1.22 µM) | 4 to 16 (≈ 4.87 to 19.5 µM) | – | CC(C)Oc1ccc(C(=O)OCOC(=O)N(CC(=O)Nc2cc(N(C)C)c3c(c2O)C(=O)C2=C(O)[C@]4(O)C(=O)C(C(N)=O)=C(O)[C@@H](N(C)C)[C@@H]4C[C@@H]2C3)C(C)(C)C)cc1 [Example 96, ({[(2-{[(5aR,6aS,7S,10aS)-9-(aminocarbonyl)-4,7-bis(dimethylamino)-1,8,10a,11-tetrahydroxy-10,12-dioxo-5,5a,6,6a,7,10,10a,12-octahydrotetracen-2-yl]amino}-2-oxoethyl)(tert-butyl)amino]carbonyl}oxy)methyl 4-isopropoxybenzoate] | 2 to 4 | > 32 | 16 to 32 | 1 to 2
3 | 0.5 to 1 (≈ 0.569 to 1.14 µM) | > 64 | 0.5 to 1 (≈ 0.569 to 1.14 µM) | – | > 64 | CCCCCCCOc1ccc(C(=O)OCOC(=O)N(CC(=O)Nc2cc(N(C)C)c3c(c2O)C(=O)C2=C(O)[C@]4(O)C(=O)C(C(N)=O)=C(O)[C@@H](N(C)C)[C@@H]4C[C@@H]2C3)C(C)(C)C)cc1 [Example 102, ({[(2-{[(5aR,6aS,7S,10aS)-9-(aminocarbonyl)-4,7-bis(dimethylamino)-1,8,10a,11-tetrahydroxy-10,12-dioxo-5,5a,6,6a,7,10,10a,12-octahydrotetracen-2-yl]amino}-2-oxoethyl)(tert-butyl)amino]carbonyl}oxy)methyl 4-(heptyloxy)benzoate] | 2 to 4 | > 32 | 19.8 | 1.59
